# According to US12268685B2, “Dosing regimen for injectable cetirizine” (JDP THERAPEUTICS LLC, priority 2019, dated 2025):
# Entries after “also recorded” stand apart in the source; their conditions may differ. Where a name gives a salt, the structure may show the parent alone. Read-outs that look alike come from different tables or passages of the source.
# Key:
# [1] = test system: Sprague-Dawley rats
# Protocol: The study was conducted in four phases (Phase I, II/IIB, III and IV/IVB) via various methods of intravenous injection to rats. The intravenous route is the route of administration for the final finished product in human subjects. […] Phase III was conducted to evaluate repeat dosing using a Sponsor prepared human clinical formulation.
# Phase I (Dose escalation): The test item dose formulation was administered in an escalating dose fashion by slow intravenous injection (over approximately 2 minutes) into the tail vein using a hypodermic needle attached to a syringe. A minimum 24-hour observation period was allowed between successive doses. The dose volume was 5 mL/kg for all animals. […] The protocol is described in Table 2.
# Sprague-Dawley rats were used for all of the experiments.
# [2] = test system: Sprague-Dawley rats; settings: rat, in vivo
# [3] = test system: Sprague-Dawley rats; settings: Phase IV
# [4] = test system: subjects with acute urticaria; settings: for Developed other symptoms: No / Developed other symptoms: Yes / Needed additional medication: No / Needed additional medication: Yes / Needed medication prescribed at discharge: No / Needed medication prescribed at discharge: No medication prescribed / Needed medication prescribed at discharge: Yes / Recurrence of allergic symptoms: No / Recurrence of allergic symptoms: Yes / Returned to normal activity: No / Returned to normal activity: Yes: ITT; for Patient-rated pruritus severity score, 2 Hour Change from Baseline, mean (primary efficacy measure): LOCF; for Patient-rated pruritus severity score, 2 Hour Change from Baseline, mean (primary efficacy measure) / Time spent at the treatment center, Mean (SD): acetic acid, dihydrochloride
# [5] = injection; cited from earlier work
# [6] = test system: adult and pediatric patients; settings: cited from earlier work
# [7] = Sprague-Dawley, 30 mg/kg/day, 7 days
# [8] = 24 hrs after discharge, count (percentage)
# [9] = 48 hrs after discharge, count (percentage)
# [10] = ITT Population, listed as Cetirizine Injection
# [11] = ITT Population, before treatment
# [12] = ITT Population, count (percentage)
compound,measurement,setting,value
"O=C(O)COCCN1CCN(C(c2ccccc2)c2ccc(Cl)cc2)CC1 (racemic) [cetirizine dihydrochloride, (±)-[2-[4-[(4-chlorophenyl)phenylmethyl]-1-piperazinyl]ethoxy] acetic acid, dihydrochloride]",Animals found dead,"[1]; Sprague-Dawley, rat, in vivo, 50 mg/kg",2/4
same,Mortality dose level as multiple of human clinical dose,"[1]; Sprague-Dawley, rat, in vivo, 14 days",58 times of human clinical dose
same,Animals found dead,"[1]; rat, in vivo, 100 mg/kg",¾
same,Dose levels associated with mortality,"[1]; single IV injection, tail vein",≥ 50 mg/kg
same,"Animals with findings at the dosing site (tail), dark area",[2]; [7],2/10
same,Enlargement of bronchial lymph node,[2]; [7],2/10
same,Animals affected by macroscopic findings at the dosing site (tail),"[2]; Sprague-Dawley, 2 days",8/10
same,Dark focus/area/mottling at the dosing site,"[2]; Sprague-Dawley, 2 days",8/10
same,Scab at the dosing site,"[2]; Sprague-Dawley, 2 days",1/10
same,Thickening at the dosing site,"[2]; Sprague-Dawley, 2 days",6/10
same,Body weight,[2],no test item related effects noted
same,Other clinical signs,"[3]; 30 mg/kg/day, as of Day 1, acetic acid, dihydrochloride, 30 mg/kg/day",Increases in activity and changes in posture (hunched back); also recorded: Changes in posture and increased activity were noted
same,Dark focus of the lungs,[3]; necropsy,2/4
same,Macroscopic findings at the dosing site,[3]; necropsy,no findings at the dosing site were observed
same,Developed other symptoms: No,[4]; [8],108 (85.04)
same,Developed other symptoms: Yes,[4]; [8],12 (9.45)
same,Needed additional medication: No,[4]; [8],94 (74.02)
same,Needed additional medication: Yes,[4]; [8],26 (20.47)
same,Needed medication prescribed at discharge: No,[4]; [8],41 (32.28)
same,Needed medication prescribed at discharge: No medication prescribed,[4]; [8],10 (7.87)
same,Needed medication prescribed at discharge: Yes,[4]; [8],69 (54.33)
same,Recurrence of allergic symptoms: No,[4]; [8],66 (51.97)
same,Recurrence of allergic symptoms: Yes,[4]; [8],54 (42.52)
same,Returned to normal activity: No,[4]; [8],17 (13.39)
same,Returned to normal activity: Yes,[4]; [8],103 (81.10)
same,Developed other symptoms: No,[4]; [9],111 (87.40)
same,Developed other symptoms: Yes,[4]; [9],10 (7.87)
same,Needed additional medication: No,[4]; [9],102 (80.31)
same,Needed additional medication: Yes,[4]; [9],19 (14.96)
same,Needed medication prescribed at discharge: No,[4]; [9],46 (36.22)
same,Needed medication prescribed at discharge: No medication prescribed,[4]; [9],11 (8.66)
same,Needed medication prescribed at discharge: Yes,[4]; [9],64 (50.39)
same,Recurrence of allergic symptoms: No,[4]; [9],85 (66.93)
same,Recurrence of allergic symptoms: Yes,[4]; [9],36 (28.35)
same,Returned to normal activity: No,[4]; [9],9 (7.09)
same,Returned to normal activity: Yes,[4]; [9],112 (88.19)
same,Course of subject-rated sedation scores after treatment,[4]; ITT Population,returning to baseline sedation by 2 hrs
same,"Patient-rated pruritus severity score, 1 Hour Assessment, mean",[4]; ITT Population,0.81
same,"Patient-rated pruritus severity score, 1 Hour Change from Baseline, mean",[4]; ITT Population,−1.39
same,"Patient-rated pruritus severity score, 2 Hour Assessment, mean",[4]; ITT Population,0.60
same,"Patient-rated pruritus severity score, Discharge Assessment, mean",[4]; ITT Population,0.58
same,"Patient-rated pruritus severity score, Discharge Change from Baseline, mean",[4]; ITT Population,−1.62
same,"Physician-rated urticaria/erythema score, 1 Hour Assessment, mean",[4]; ITT Population,1.27
same,"Physician-rated urticaria/erythema score, 1 Hour Change from Baseline, mean",[4]; ITT Population,−0.54
same,"Physician-rated urticaria/erythema score, 2 Hour Assessment, mean",[4]; ITT Population,1.19
same,"Physician-rated urticaria/erythema score, 2 Hour Change from Baseline, mean",[4]; ITT Population,−0.63
same,"Physician-rated urticaria/erythema score, Discharge Assessment, mean",[4]; ITT Population,1.17
same,"Physician-rated urticaria/erythema score, Discharge Change from Baseline, mean",[4]; ITT Population,−0.65
same,"Subject-rated sedation score, 1 Hour Assessment, mean",[4]; ITT Population,0.62
same,"Subject-rated sedation score, 1 Hour Change from Baseline, mean",[4]; ITT Population,0.24
same,"Subject-rated sedation score, 2 Hour Assessment, mean",[4]; ITT Population,0.46
same,"Subject-rated sedation score, 2 Hour Change from Baseline, mean",[4]; ITT Population,0.08
same,"Subject-rated sedation score, Discharge Assessment, mean",[4]; ITT Population,0.46
same,"Subject-rated sedation score, Discharge Change from Baseline, mean",[4]; ITT Population,0.08
same,"Time spent at the treatment center, Median",[4]; ITT Population,1.42 h
same,Time spent at the treatment center shorter than with diphenhydramine injection,[4]; ITT Population analysis,22 min
same,"Patient-rated pruritus severity score, 2 Hour Change from Baseline, mean (primary efficacy measure)",[4]; ITT Population,−1.61 (0.944)
same,"Patient-rated pruritus severity score, 2 Hour Change from Baseline, mean (primary efficacy measure)",[4]; [10],−1.61
same,"Patient-rated pruritus severity score, Baseline Assessment, mean",[4]; [11],2.20
same,"Physician-rated urticaria/erythema score, Baseline Assessment, mean",[4]; [11],1.81
same,"Subject-rated sedation score, Baseline Assessment, mean",[4]; [11],0.39
same,Subjects who returned to the treatment center: No,[4]; [12],120 (94.49)
same,Subjects who returned to the treatment center: Yes,[4]; [12],7 (5.51)
same,"Time spent at the treatment center, Mean (SD)",[4]; [10],1.71 (0.868) Hours
same,"Time spent at the treatment center, Mean (SD)","[4]; ITT Population, listed as injectable cetirizine",1.7 (0.9) Hours
same,"Effectively treated subjects, yes","[4]; Investigator's opinion, count (percentage)",103 (81.10)
same,Time spent at the treatment center shorter than with diphenhydramine injection,[4]; PP Population analysis,27 min
same,Proportion of patients returning to any emergency department or clinic,"[4]; clinical trials, treatment group",6%
same,"Subjects needed rescue drug, yes",[4]; count (percentage),19 (14.96)
same,"Least squares estimated treatment difference, 2 hr change in pruritus severity score","[4]; diphenhydramine-cetirizine, 95% CI=−0.281, 0.396",0.06
same,Effectiveness compared to diphenhydramine injection,"[4]; non-inferiority margin −0.50, 2 hr pruritus change",non-inferior
same,"Pruritus treatment success, yes","[4]; score reduction of at least 1 unit at 2 hr, count (percentage)",110 (86.61)
same,Hemolysis,[5],free of hemolysis
same,Most commonly reported adverse reactions in adult overdose cases,"[6]; oral doses of 70 mg to 800 mg, patients 18 to 81 years",somnolence and fatigue
same,Adverse reactions reported in pediatric overdose cases,"[6]; oral doses of 90 mg to 300 mg, patients 18 months to 15 years","somnolence, difficulty walking, agitation/irritability, hard to swallow/articulate clearly, tachycardia, vomiting, mydriasis, and elevated creatinine phosphokinase"
